Source: patent publication US9000162B2, “5,8-difluoro-4-(2-(4-(heteroaryloxy)-phenyl)ethylamino)quinazolines and their use as agrochemicals” (Dow AgroSciences LLC, priority 2008, dated 2015)

Experiments:
Assay type in all cases: in vivo
[1] = system: Pseudoperonospora cubensis (PSPECU); assay: Cucumber downy mildew foliar protectant test; details: 200 ppm foliar, inoculated one day after treatment, read-out: Activity against fungal diseases PSPECU
Experimental: The plants were inoculated with the fungus one day after treatment. ***=80-100% control; **=50-79% control; *=0-49% control. It will be understood by those in the art that the efficacy of the compounds against the foregoing fungi establishes the general utility of the compounds as fungicides. The activity of the compounds as effective fungicides was determined by applying the compounds to plants and observing control of fungal disease. […] All plants were inoculated with spores of the fungus the day after treatment, then incubated in an environment conducive to disease development. Disease severity was evaluated 4 to 25 days later, depending on the speed of disease development. The following experiments were performed in the laboratory to determine the fungicidal efficacy of the compounds of the invention. Cucumber Downy Mildew (Causal Agent Pseudoperonospora cubensis; Bayer Code […]): Cucumber plants (variety “Bush Champion' or 'Bush Pickle Hybrid') were grown from seed in a soil-less peat-based potting mixture (Metromix) until the first true leaf was 20-80% expanded. Each pot contained 1 seedling. These plants were sprayed until wet with the formulated test compound. On the following day, the leaves were inoculated with an aqueous suspension of downy mildew sporangia and the plants were kept in high humidity for one day to permit sporangia to germinate and infect the leaf. The plants were then incubated in a growth chamber until disease developed on untreated control plants. Table 1 presents the activity of typical compounds of the present invention when evaluated in these experiments. The effectiveness of the test compounds at controlling disease when sprayed on leaves was determined by assessing the severity of disease on treated plants, then converting the severity to percent control based on the level of disease on untreated, inoculated plants.

[2] = system: Puccinia recondita tritici (PUCCRT); assay: Leaf rust of wheat foliar protectant test; details: 200 ppm foliar, inoculated one day after treatment, read-out: Activity against fungal diseases PUCCRT
Experimental: (§1) The plants were inoculated with the fungus one day after treatment. ***=80-100% control; **=50-79% control; *=0-49% control. It will be understood by those in the art that the efficacy of the compounds against the foregoing fungi establishes the general utility of the compounds as fungicides. The activity of the compounds as effective fungicides was determined by applying the compounds to plants and observing control of fungal disease. […] All plants were inoculated with spores of the fungus the day after treatment, then incubated in an environment conducive to disease development. Disease severity was evaluated 4 to 25 days later, depending on the speed of disease development. The following experiments were performed in the laboratory to determine the fungicidal efficacy of the compounds of the invention. […] Each pot contained 3-8 seedlings. These plants were sprayed until wet with the formulated test compounds. On the following day, the leaves were inoculated with an aqueous spore suspension of Puccinia recondita tritici and the plants were kept in high humidity overnight to permit spores to germinate and infect the leaf. The plants were then transferred to a greenhouse until disease developed on untreated control plants. Table 1 presents the activity of typical compounds of the present invention when evaluated in these experiments. The effectiveness of the test compounds at controlling disease when sprayed on leaves was determined by assessing the severity of disease on treated plants, then converting the severity to percent control based on the level of disease on untreated, inoculated plants.

[3] = system: Magnaporthe grisea = Pyricularia oryzae (PYRIOR); assay: whole plant or invertebrate; details: foliar, read-out: Activity against fungal diseases PYRIOR
[4] = system: Septoria tritici (SEPTTR); assay: Septoria blotch of wheat foliar protectant test; details: Zymoseptoria tritici, read-out: Activity against fungal diseases SEPTTR; for pest or weed control at 200 ppm: 200 ppm foliar, inoculated one day after treatment; for pest or weed control at 25 ppm: foliar, Tested at 25 ppm (footnote b)
Experimental: as §1, with “3-10” for “3-8”, “compound.” for “compounds.”, “Septoria” for “Puccinia recondita”, “(one day in a dark dew chamber followed by three days in a lighted dew chamber)” for “overnight”

Structure (SMILES)	pest or weed control at 200 ppm [1] [%]	pest or weed control at 200 ppm [2] [%]	pest or weed control at 200 ppm [3] [%]	pest or weed control at 200 ppm [4] [%]	pest or weed control at 25 ppm [4] [%]
COc1cc(C)c(CCNc2ncnc3c(F)ccc(F)c23)cc1C [Compound 17]	80 to 100	80 to 100	50 to 79	0 to 49	
Fc1nc(C(F)(F)F)nc(Oc2ccc(CCNc3ncnc4c(F)ccc(F)c34)cc2)c1F [Compound 100]	80 to 100	0 to 49	0 to 49	0 to 49	
Fc1ccc(F)c2c(NCCc3ccc(Oc4cc(C(F)(F)F)ccn4)c(Cl)c3)ncnc12 [Compound 90]	80 to 100	80 to 100	80 to 100	80 to 100	
Cc1cc(CCNc2ncnc3c(F)ccc(F)c23)ccc1Oc1cc(C(F)(F)F)ccn1 [Compound 25]	80 to 100	80 to 100	80 to 100	80 to 100	
Fc1cc(CCNc2ncnc3c(F)ccc(F)c23)ccc1Oc1ccc(C(F)(F)F)cn1 [Compound 130]	80 to 100	80 to 100	80 to 100	80 to 100	
Fc1cc(Oc2cc(C(F)(F)F)ncn2)ccc1CCNc1ncnc2c(F)ccc(F)c12 [Compound 116]	80 to 100	80 to 100	80 to 100		80 to 100
COc1cc(CCNc2ncnc3c(F)ccc(F)c23)ccc1Oc1c(F)cnc(C(F)(F)F)c1F [Compound 50]	80 to 100	80 to 100	80 to 100	80 to 100	
COc1cc(CCNc2ncnc3c(F)ccc(F)c23)ccc1O [Compound 14]	50 to 79	0 to 49	0 to 49		0 to 49
Fc1ccc(F)c2c(NCCc3ccc(Oc4ccnc(C(F)(F)F)n4)cc3)ncnc12 [Compound 114]	80 to 100	80 to 100	80 to 100		50 to 79
CC(Nc1ncnc2c(F)ccc(F)c12)c1ccccc1 (stereo not drawn) [Compound 119]	80 to 100	80 to 100	80 to 100	80 to 100	
Cc1cc(CCNc2ncnc3c(F)ccc(F)c23)ccc1O [Compound 24]	0 to 49	0 to 49	0 to 49	0 to 49	
N#Cc1c(Cl)cncc1Oc1ccc(CCNc2ncnc3c(F)ccc(F)c23)cc1 [Compound 129]	80 to 100	80 to 100	80 to 100	50 to 79	
COc1cc(CCNc2ncnc3c(F)ccc(F)c23)ccc1Oc1cc(C(F)(F)F)ncn1 [Compound 112]	80 to 100	80 to 100	80 to 100		80 to 100
COc1cc(CCNc2ncnc3c(F)ccc(F)c23)ccc1Oc1c(Cl)cnc(C(Cl)(Cl)Cl)c1Cl [Compound 89]	50 to 79	80 to 100	50 to 79	50 to 79	
COc1ccc(CCNc2ncnc3c(F)ccc(F)c23)c(C)c1C [Compound 20]	80 to 100	80 to 100	50 to 79	50 to 79	
